Reference: patent US20240246977A1, “DEGRADATION OF BRUTON'S TYROSINE KINASE (BTK) BY CONJUGATION OF BTK INHIBITORS WITH E3 LIGASE LIGAND AND METHOD OF USE” (BeiGene Switzerland GmbH, priority 2021, published 2024)

Experiments:
HEK-293 cells = test: HEK-293 cytotoxicity detection (CellTiter-Glo); type: cell-based; conditions: Homo sapiens, 72 h, 72 h incubation, CellTiter-Glo luminescence, read-out: HEK293
Experimental: HEK-293 cells were treated with compounds diluted in 0.2% DMSO, dilution was done according to the following protocol: (1) making 500× stock solution in DMSO from 5 mM by 4-fold dilution, total 8 doses were included; (2) making 2× solution in cell culture medium by transferring 0.5 ul 500× stock solution into 125 ul medium; (3) adding 50 ul of 2× solution to cells for incubation of 72 h.
25 μl of the CellTiter-Glo®Reagent [(Promega)—Cat No. G7572] was added to each well in the 96-well plate. The contents were mixed for 2 minutes on an orbital shaker to induce cell lysis. The plate was then allowed to incubate at room temperature for 10 minutes to stabilize luminescent signal. Luminescence was recorded on BMG PheraStar with luminescence protocol.
The inhibition percentage of the compound was calculated by the following equation: Inhibition percentage of Compound=100−100×(Signal-low control)/(High control-low control), wherein signal=each test compound group
High control=Cell group with added DMSO and without compound, indicating cells proliferation with no inhibition;
Imax is the maximum percentage of inhibition.
The IC50 value of a compound can be obtained by fitting the following equation
(§1) Wherein, X and Y are known values, and IC50, Hillslope, Top and Bottom are the parameters obtained by fitting with software. Y is the inhibition percentage (calculated from the equation), X is the concentration of the compound; IC50 is the concentration of the compound when the 50% inhibition is reached. The smaller the IC50 value is, the stronger the inhibitory ability of the compound is. Vice versa, the higher the IC50 value is, the weaker the ability the inhibitory ability of the compound is; Hillslope represents the slope of the fitted curve, generally around 1*; Bottom represents the minimum value of the curve obtained by data fitting, which is generally 0%±20%; Top represents the maximum value of the curve obtained by data fitting, which is generally 100%±20%. The experimental data were fitted by calculating and analyzing with Dotmatics data analysis software.

BTK = BTK (Homo sapiens, UniProt Q06187); test: BTK cell degradation in TMD-8 cells, HTRF assay; type: cell-based; design: endogenous in cells; host or cells: TMD-8 cells; conditions: 6 h treatment, IC50 (DC50) of BTK degradation
Experimental: TMD-8 cells were treated with compounds diluted in 0.2% DMSO, dilution was done according to the following protocol: (1) making 500× stock solution in DMSO from 1 mM by 6-fold dilution, total 8 doses were included; (2) making 2× solution in cell culture medium by transferring 0.5 μl 500× stock solution into 125 μl medium; (3) adding 15 μl of 2× solution to cells for incubation of 6 h.
After 6 h treatment, 10 μl 14×lysis buffer was added to each well; the plate was sealed and incubated for 30 min at room temperature on a plate shaker; Once the cells was lysed, 16 μL of cell lysate were transferred to a PE 384-well HTRF detection plate; 4 μL of pre-mixed HTRF antibodies were added to each well; the plate was covered with a plate sealer, and then spinned at 1000 rpm for 1 min, then incubated overnight at room temperature; the results were read on BMG PheraStar with HTRF protocol (337 nm-665 nm-620 nm).
The inhibition (degradation) percentage of the compound was calculated by the following equation: Inhibition percentage of Compound=100−100×(Signal-low control)/(High control-low control), wherein signal=each test compound group
High control=Cell group with added DMSO and without compound, indicating microplate readings without BTK degradation;
Dmax is the maximum percentage of inhibition (degradation).
The IC50 (DC50) value of a compound can be obtained by fitting the following equation
Y=Bottom+(TOP−Bottom)/(1+((IC50/X)^hillslope))
as §1, with “wherein,” for “Wherein,”

BTK, sequence (Q06187 whole entry): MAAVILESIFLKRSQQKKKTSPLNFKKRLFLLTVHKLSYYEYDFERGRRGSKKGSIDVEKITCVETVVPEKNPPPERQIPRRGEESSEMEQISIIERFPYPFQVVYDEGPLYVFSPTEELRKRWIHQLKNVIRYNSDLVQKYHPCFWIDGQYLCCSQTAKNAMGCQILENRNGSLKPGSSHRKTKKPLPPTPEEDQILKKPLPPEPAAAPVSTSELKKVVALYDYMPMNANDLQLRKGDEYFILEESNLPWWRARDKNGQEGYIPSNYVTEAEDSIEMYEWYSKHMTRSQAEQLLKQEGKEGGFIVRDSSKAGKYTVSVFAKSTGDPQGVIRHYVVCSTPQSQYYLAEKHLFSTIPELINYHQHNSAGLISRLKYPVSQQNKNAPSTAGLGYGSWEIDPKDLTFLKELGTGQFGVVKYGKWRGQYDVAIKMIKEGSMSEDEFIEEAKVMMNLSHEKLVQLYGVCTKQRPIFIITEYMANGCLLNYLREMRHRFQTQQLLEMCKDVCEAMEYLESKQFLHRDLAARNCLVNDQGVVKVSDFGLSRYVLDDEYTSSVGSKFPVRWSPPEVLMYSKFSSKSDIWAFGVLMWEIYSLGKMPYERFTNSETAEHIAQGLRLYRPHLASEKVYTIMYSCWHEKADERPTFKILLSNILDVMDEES

Structure (SMILES) | IC50 (HEK-293 cells) [nM] | DC50 (BTK) [nM]
NC(=O)c1c(-c2ccc(C(=O)Nc3cc(C(F)(F)F)ccn3)c(F)c2)nn2c1Nc1ccc(N3CCN(CC4CCN(c5ccc(N6CCC(=O)NC6=O)cc5)CC4)CC3)cc1CC2 [Example B8, 7-(4-((1-(4-(2,4-dioxotetrahydropyrimidin-1(2H)-yl)phenyl)piperidin-4-yl)methyl)piperazin-1-yl)-2-(3-fluoro-4-((4-(trifluoromethyl)pyridin-2-yl)carbamoyl)phenyl)-9,10-dihydro-4H-benzo[d]pyrazolo[1,5-a][1,3]diazepine-3-carboxamide] | 301 | 1.82
Cc1cccc(NC(=O)c2ccc(-c3nn4c(c3C(N)=O)Nc3ccc(N5CCN(CC6CCN(c7ccc(N8CCC(=O)NC8=O)cc7)CC6)CC5)cc3CC4)c(F)c2C)n1 [Example B28, 7-(4-((1-(4-(2,4-dioxotetrahydropyrimidin-1(2H)-yl)phenyl)piperidin-4-yl)methyl)piperazin-1-yl)-2-(2-fluoro-3-methyl-4-((6-methylpyridin-2-yl)carbamoyl)phenyl)-9,10-dihydro-4H-benzo[d]pyrazolo[1,5-a][1,3]diazepine-3-carboxamide] | > 10000 | 0.726
COc1ccc(C2CC2)cc1C(=O)NCc1ccc(-c2nn3c(c2C(N)=O)Nc2ccc(N4CCN(CC5CCN(c6ccc(N7CCC(=O)NC7=O)cc6)CC5)CC4)cc2CC3)cc1 [Example C29, 2-(4-((5-cyclopropyl-2-methoxybenzamido)methyl)phenyl)-7-(4-((1-(4-(2,4-dioxotetrahydropyrimidin-1(2H)-yl)phenyl)piperidin-4-yl)methyl)piperazin-1-yl)-9,10-dihydro-4H-benzo[d]pyrazolo[1,5-a][1,3]diazepine-3-carboxamide] | > 10000 | 1.56
Cc1cccc(NC(=O)c2ccc(-c3nn4c(c3C(N)=O)Nc3ccc(N5CCN(Cc6ccc7c(c6)C(C)(C)C(=O)N7C6CCC(=O)NC6=O)CC5)cc3CC4)c(F)c2C)n1 (stereo not drawn) [Example B60, 7-(4-((1-(2,6-dioxopiperidin-3-yl)-3,3-dimethyl-2-oxoindolin-5-yl)methyl)piperazin-1-yl)-2-(2-fluoro-3-methyl-4-((6-methylpyridin-2-yl)carbamoyl)phenyl)-9,10-dihydro-4H-benzo[d]pyrazolo[1,5-a][1,3]diazepine-3-carboxamide] | > 10000 | 4.97
Cc1cccc(NC(=O)c2ccc(-c3nn4c(c3C(N)=O)Nc3ccc(N5CCN(C6CC(c7ccc([C@@H]8CCC(=O)NC8=O)cc7)C6)CC5)cc3CC4)c(F)c2C)n1 (stereo partly drawn) [Example B68, (S)-7-(4-(3-(4-(2,6-dioxopiperidin-3-yl)phenyl)cyclobutyl)piperazin-1-yl)-2-(2-fluoro-3-methyl-4-((6-methylpyridin-2-yl)carbamoyl)phenyl)-9,10-dihydro-4H-benzo[d]pyrazolo[1,5-a][1,3]diazepine-3-carboxamide] | 105 | 2.56
COc1cc(C(=O)Nc2cccc(C)n2)ccc1-c1nn2c(c1C(N)=O)Nc1ccc(N3CCN(CC4CCN(c5ccc(N6CCC(=O)NC6=O)cc5)CC4)CC3)cc1CC2 [Example B22, 7-(4-((1-(4-(2,4-dioxotetrahydropyrimidin-1(2H)-yl)phenyl)piperidin-4-yl)methyl)piperazin-1-yl)-2-(2-methoxy-4-((6-methylpyridin-2-yl)carbamoyl)phenyl)-9,10-dihydro-4H-benzo[d]pyrazolo[1,5-a][1,3]diazepine-3-carboxamide] | > 10000 | 0.338
COc1cc(C(=O)Nc2cc(C(F)(F)F)ccn2)ccc1-c1nn2c(c1C(N)=O)Nc1ccc(N3CCN(CC4CCN(c5ccc(N6CCC(=O)NC6=O)cc5)CC4)CC3)cc1CC2 [Example B27, 7-(4-((1-(4-(2,4-dioxotetrahydropyrimidin-1(2H)-yl)phenyl)piperidin-4-yl)methyl)piperazin-1-yl)-2-(2-methoxy-4-((4-(trifluoromethyl)pyridin-2-yl)carbamoyl)phenyl)-9,10-dihydro-4H-benzo[d]pyrazolo[1,5-a][1,3]diazepine-3-carboxamide] | > 10000 | 0.849
COc1ccc(C(F)(F)F)cc1C(=O)NCc1ccc(-c2nn3c(c2C(N)=O)Nc2ccc(N4CCN(CC5CCN(c6ccc(N7CCC(=O)NC7=O)cc6)CC5)CC4)cc2CC3)cc1 [Example C21, 7-(4-((1-(4-(2,4-dioxotetrahydropyrimidin-1(2H)-yl)phenyl)piperidin-4-yl)methyl)piperazin-1-yl)-2-(4-((2-methoxy-5-(trifluoromethyl)benzamido)methyl)phenyl)-9,10-dihydro-4H-benzo[d]pyrazolo[1,5-a][1,3]diazepine-3-carboxamide] | > 10000 | 0.703
COc1cc(F)c(F)cc1C(=O)NCc1ccc(-c2nn3c(c2C(N)=O)Nc2ccc(N4CCN(CC5CCN(c6ccc(N7CCC(=O)NC7=O)cc6)CC5)CC4)cc2CC3)cc1 [Example C30, 2-(4-((4,5-difluoro-2-methoxybenzamido)methyl)phenyl)-7-(4-((1-(4-(2,4-dioxotetrahydropyrimidin-1(2H)-yl)phenyl)piperidin-4-yl)methyl)piperazin-1-yl)-9,10-dihydro-4H-benzo[d]pyrazolo[1,5-a][1,3]diazepine-3-carboxamide] | > 10000 | 0.786
Cc1cccc(NC(=O)c2ccc(-c3nn4c(c3C(N)=O)Nc3ccc(N5CCN(CC6CCN(c7ccc(N8CCC(=O)N(CC(=O)OCc9ccccc9)C8=O)cc7)CC6)CC5)cc3CC4)c(F)c2C)n1 [Example B80, benzyl 2-(3-(4-(4-((4-(3-carbamoyl-2-(2-fluoro-3-methyl-4-((6-methylpyridin-2-yl)carbamoyl)phenyl)-9,10-dihydro-4H-benzo[d]pyrazolo[1,5-a][1,3]diazepin-7-yl)piperazin-1-yl)methyl)piperidin-1-yl)phenyl)-2,6-dioxotetrahydropyrimidin-1(2H)-yl)acetate] | > 10000 | > 2000
Cc1c(C(=O)Nc2cscn2)ccc(-c2nn3c(c2C(N)=O)Nc2ccc(N4CCN(C(=O)C5CCN(c6ccc(N7CCC(=O)NC7=O)cc6)CC5)CC4)cc2CC3)c1F [Example B102, 7-(4-(1-(4-(2,4-dioxotetrahydropyrimidin-1(2H)-yl)phenyl)piperidine-4-carbonyl)piperazin-1-yl)-2-(2-fluoro-3-methyl-4-(thiazol-4-ylcarbamoyl)phenyl)-9,10-dihydro-4H-benzo[d]pyrazolo[1,5-a][1,3]diazepine-3-carboxamide] | > 10000 | 1.1
Cc1cc(-c2nn3c(c2C(N)=O)Nc2ccc(N4CCN(CC5CCN(c6ccc(N7CCC(=O)NC7=O)cc6)CC5)CC4)cc2CC3)ccc1CNC(=O)c1noc(C(C)(C)C)n1 [Example C7, 5-(tert-butyl)-N-(4-(3-carbamoyl-7-(4-((1-(4-(2,4-dioxotetrahydropyrimidin-1(2H)-yl)phenyl)piperidin-4-yl)methyl)piperazin-1-yl)-9,10-dihydro-4H-benzo[d]pyrazolo[1,5-a][1,3]diazepin-2-yl)-2-methylbenzyl)-1,2,4-oxadiazole-3-carboxamide] | > 10000 | 22.7
